According to ChEMBL document CHEMBL3885881, “DrugMatrix”:

Organism: Rattus norvegicus
Experiment: DrugMatrix - Regimen: Daily Repeat
Type: toxicity, organism-based, Sprague-Dawley
Set-up: regimen Daily Repeat, gender Male, age 6-8 weeks
Settings: in vivo, po, route oral GAVAGE, […]; for ABSOLUTE BASOPHIL / ABSOLUTE EOSINOPHIL / ABSOLUTE LYMPHOCYTE / ABSOLUTE MONOCYTE / ABSOLUTE SEGMENTED NEUTROPHIL / BASOPHIL / EOSINOPHIL / ERYTHROCYTE COUNT / HEMATOCRIT / HEMOGLOBIN / LEUKOCYTE COUNT / LYMPHOCYTE / MEAN CORPUSCULAR HEMOGLOBIN / MEAN CORPUSCULAR HEMOGLOBIN CONCENTRATION / MONOCYTE / NEUTROPHIL / NUCLEATED RED BLOOD CELLS / PLATELET COUNT: tissue Blood; for ALANINE AMINOTRANSFERASE / ALBUMIN / ALKALINE PHOSPHATASE / ASPARTATE AMINOTRANSFERASE / BLOOD UREA NITROGEN / CARBON DIOXIDE / CHLORIDE / CHOLESTEROL / CREATINE PHOSPHOKINASE / CREATININE / GLUCOSE / LACTATE DEHYDROGENASE / LIPASE / PHOSPHORUS / POTASSIUM / SODIUM / TOTAL BILIRUBIN / TOTAL PROTEIN / URIC ACID: tissue Plasma
[1] = 0 mg/kg, 72 h, dose level Control, time 3 day
[2] = 0 mg/kg, 120 h, dose level Control, time 5 day
[3] = 54 mg/kg, 72 h, dose level Low, time 3 day
[4] = 54 mg/kg, 120 h, dose level Low, time 5 day

With `CC(C)Cc1ccc(C(C)C(=O)O)cc1` (configuration not stated) [IBUPROFEN] the “ABSOLUTE BASOPHIL” value [1] was 0 CELLS/uL, the “ABSOLUTE EOSINOPHIL” value [1] was 0 CELLS/uL and the “ABSOLUTE LYMPHOCYTE” value [1] was 7601 CELLS/uL. For the same compound, the “ABSOLUTE MONOCYTE” value [1] was 354.33 CELLS/uL, the “ABSOLUTE SEGMENTED NEUTROPHIL” value [1] was 744.67 CELLS/uL and the BASOPHIL [1] was 0%. For the same compound, the EOSINOPHIL [1] was 0%, the “ERYTHROCYTE COUNT” value [1] was 5.03 x10E6/uL and the HEMATOCRIT [1] was 33.7%. The HEMOGLOBIN [1] was 13.43 G/DL, the “LEUKOCYTE COUNT” value [1] was 8.7 x10E3/uL and the LYMPHOCYTE [1] was 86.33%. The “MEAN CORPUSCULAR HEMOGLOBIN” value [1] was 26.7 pg, the “MEAN CORPUSCULAR HEMOGLOBIN CONCENTRATION” value [1] was 39.83 G/DL and the MONOCYTE [1] was 4.67%. The NEUTROPHIL [1] was 9%, the “NUCLEATED RED BLOOD CELLS” value [1] was 0 /100WBC and the “PLATELET COUNT” value [1] was 1151 x10E3/uL. The “ALANINE AMINOTRANSFERASE” value [1] was 97.67 u/L, the ALBUMIN [1] was 4.07 G/DL and the “ALKALINE PHOSPHATASE” value [1] was 607.67 u/L. The “ASPARTATE AMINOTRANSFERASE” value [1] was 101 u/L, the “BLOOD UREA NITROGEN” value [1] was 13.33 mg/dL and the “CARBON DIOXIDE” value [1] was 36 mmol/L. For the same compound, the CHLORIDE [1] was 99.67 MEQ/L, the CHOLESTEROL [1] was 75.67 mg/dL and the “CREATINE PHOSPHOKINASE” value [1] was 279.67 u/L. The CREATININE [1] was 0.16 mg/dL, the GLUCOSE [1] was 164 mg/dL and the “LACTATE DEHYDROGENASE” value [1] was 115 u/L. It also gave an LIPASE [1] of 12.67 u/L, a PHOSPHORUS [1] of 8.77 mg/dL and a POTASSIUM [1] of 5.79 MEQ/L. For the same compound, the SODIUM [1] was 142.83 MEQ/L, the “TOTAL BILIRUBIN” value [1] was 0.27 mg/dL and the “TOTAL PROTEIN” value [1] was 5.8 G/DL. The “URIC ACID” value [1] was 0.67 mg/dL, the “ABSOLUTE BASOPHIL” value [2] was 0 CELLS/uL and the “ABSOLUTE EOSINOPHIL” value [2] was 0 CELLS/uL. The “ABSOLUTE LYMPHOCYTE” value [2] was 4426.33 CELLS/uL, the “ABSOLUTE MONOCYTE” value [2] was 102.67 CELLS/uL and the “ABSOLUTE SEGMENTED NEUTROPHIL” value [2] was 337.67 CELLS/uL. For the same compound, the BASOPHIL [2] was 0%, the EOSINOPHIL [2] was 0% and the “ERYTHROCYTE COUNT” value [2] was 5.31 x10E6/uL. For the same compound, the HEMATOCRIT [2] was 32.5%, the HEMOGLOBIN [2] was 13.17 G/DL and the “LEUKOCYTE COUNT” value [2] was 4.87 x10E3/uL. For the same compound, the LYMPHOCYTE [2] was 90.33%, the “MEAN CORPUSCULAR HEMOGLOBIN” value [2] was 24.93 pg and the “MEAN CORPUSCULAR HEMOGLOBIN CONCENTRATION” value [2] was 40.67 G/DL. For the same compound, the MONOCYTE [2] was 2.33%, the NEUTROPHIL [2] was 7.33% and the “NUCLEATED RED BLOOD CELLS” value [2] was 0.33 /100WBC. For the same compound, the “PLATELET COUNT” value [2] was 848.33 x10E3/uL, the “ALANINE AMINOTRANSFERASE” value [2] was 59.67 u/L and the ALBUMIN [2] was 3.87 G/DL. The “ALKALINE PHOSPHATASE” value [2] was 452 u/L, the “ASPARTATE AMINOTRANSFERASE” value [2] was 81.33 u/L and the “BLOOD UREA NITROGEN” value [2] was 13.67 mg/dL. For the same compound, the “CARBON DIOXIDE” value [2] was 26.33 mmol/L, the CHLORIDE [2] was 103.67 MEQ/L and the CHOLESTEROL [2] was 65.67 mg/dL. For the same compound, the “CREATINE PHOSPHOKINASE” value [2] was 355.33 u/L, the CREATININE [2] was 0.14 mg/dL and the GLUCOSE [2] was 171.33 mg/dL. The “LACTATE DEHYDROGENASE” value [2] was 118 u/L, the LIPASE [2] was 11.33 u/L and the PHOSPHORUS [2] was 11.13 mg/dL. For the same compound, the POTASSIUM [2] was 5.18 MEQ/L, the SODIUM [2] was 143.17 MEQ/L and the “TOTAL BILIRUBIN” value [2] was 0.2 mg/dL. The “TOTAL PROTEIN” value [2] was 5.87 G/DL, the “URIC ACID” value [2] was 0.63 mg/dL and the “ABSOLUTE BASOPHIL” value [3] was 0 CELLS/uL. For the same compound, the “ABSOLUTE EOSINOPHIL” value [3] was 0 CELLS/uL, the “ABSOLUTE LYMPHOCYTE” value [3] was 9143 CELLS/uL and the “ABSOLUTE MONOCYTE” value [3] was 146.33 CELLS/uL. The “ABSOLUTE SEGMENTED NEUTROPHIL” value [3] was 1110.67 CELLS/uL, the BASOPHIL [3] was 0% and the EOSINOPHIL [3] was 0%. The “ERYTHROCYTE COUNT” value [3] was 5.12 x10E6/uL, the HEMATOCRIT [3] was 32.67% and the HEMOGLOBIN [3] was 12.97 G/DL. For the same compound, the “LEUKOCYTE COUNT” value [3] was 10.4 x10E3/uL, the LYMPHOCYTE [3] was 88% and the “MEAN CORPUSCULAR HEMOGLOBIN” value [3] was 25.37 pg. For the same compound, the “MEAN CORPUSCULAR HEMOGLOBIN CONCENTRATION” value [3] was 39.7 G/DL, the MONOCYTE [3] was 1.33% and the NEUTROPHIL [3] was 10.67%. The “NUCLEATED RED BLOOD CELLS” value [3] was 0 /100WBC, the “PLATELET COUNT” value [3] was 1145.67 x10E3/uL and the “ALANINE AMINOTRANSFERASE” value [3] was 89.33 u/L. For the same compound, the ALBUMIN [3] was 4 G/DL, the “ALKALINE PHOSPHATASE” value [3] was 470.33 u/L and the “ASPARTATE AMINOTRANSFERASE” value [3] was 89.33 u/L. The “BLOOD UREA NITROGEN” value [3] was 14.33 mg/dL, the “CARBON DIOXIDE” value [3] was 40.33 mmol/L and the CHLORIDE [3] was 98 MEQ/L. For the same compound, the CHOLESTEROL [3] was 76.67 mg/dL, the “CREATINE PHOSPHOKINASE” value [3] was 208.67 u/L and the CREATININE [3] was 0.13 mg/dL. The GLUCOSE [3] was 160.67 mg/dL, the “LACTATE DEHYDROGENASE” value [3] was 55 u/L and the LIPASE [3] was 10.67 u/L. The PHOSPHORUS [3] was 9.53 mg/dL, the POTASSIUM [3] was 5.26 MEQ/L and the SODIUM [3] was 143.43 MEQ/L. For the same compound, the “TOTAL BILIRUBIN” value [3] was 0.2 mg/dL, the “TOTAL PROTEIN” value [3] was 5.9 G/DL and the “URIC ACID” value [3] was 0.37 mg/dL. For the same compound, the “ABSOLUTE BASOPHIL” value [4] was 0 CELLS/uL, the “ABSOLUTE EOSINOPHIL” value [4] was 0 CELLS/uL and the “ABSOLUTE LYMPHOCYTE” value [4] was 9058.67 CELLS/uL. For the same compound, the “ABSOLUTE MONOCYTE” value [4] was 185 CELLS/uL, the “ABSOLUTE SEGMENTED NEUTROPHIL” value [4] was 289.67 CELLS/uL and the BASOPHIL [4] was 0%. For the same compound, the EOSINOPHIL [4] was 0%, the “ERYTHROCYTE COUNT” value [4] was 5.22 x10E6/uL and the HEMATOCRIT [4] was 32.87%. For the same compound, the HEMOGLOBIN [4] was 13 G/DL, the “LEUKOCYTE COUNT” value [4] was 9.53 x10E3/uL and the LYMPHOCYTE [4] was 95.33%. The “MEAN CORPUSCULAR HEMOGLOBIN” value [4] was 24.87 pg, the “MEAN CORPUSCULAR HEMOGLOBIN CONCENTRATION” value [4] was 39.57 G/DL and the MONOCYTE [4] was 1.67%. For the same compound, the NEUTROPHIL [4] was 3%, the “NUCLEATED RED BLOOD CELLS” value [4] was 0 /100WBC and the “PLATELET COUNT” value [4] was 1110.33 x10E3/uL. The “ALANINE AMINOTRANSFERASE” value [4] was 65.67 u/L, the ALBUMIN [4] was 3.9 G/DL and the “ALKALINE PHOSPHATASE” value [4] was 301 u/L. For the same compound, the “ASPARTATE AMINOTRANSFERASE” value [4] was 84.67 u/L, the “BLOOD UREA NITROGEN” value [4] was 12.67 mg/dL and the “CARBON DIOXIDE” value [4] was 28.67 mmol/L. The CHLORIDE [4] was 103.67 MEQ/L, the CHOLESTEROL [4] was 69.67 mg/dL and the “CREATINE PHOSPHOKINASE” value [4] was 213.67 u/L. It also gave a CREATININE [4] of 0.23 mg/dL, a GLUCOSE [4] of 164 mg/dL and an LIPASE [4] of 11 u/L. For the same compound, the PHOSPHORUS [4] was 11.1 mg/dL, the POTASSIUM [4] was 5.49 MEQ/L and the SODIUM [4] was 144.2 MEQ/L. The “TOTAL BILIRUBIN” value [4] was 0.13 mg/dL, the “TOTAL PROTEIN” value [4] was 5.87 G/DL and the “URIC ACID” value [4] was 0.57 mg/dL.
